According to patent publication US4605672A, “Diethylaminoalkoxybenzhydrol derivatives, process for their preparation and pharmaceutical compositions containing them” (Richter Gedeon Vegyeszeti Gyar Rt., priority 1982, dated 1986):

Assays:
[1] = system: ethanolic narcosis; experiment: Ethanolic narcosis period (ethanol 3.5 g./kg. i.p.); assay type: in vivo, Wistar rats; details: 1 h before ethanol 3.5 g./kg. i.p., n=10, control = 100 ± 6.5
Description: The effect of the compounds according to the invention on ethanolic narcosis was tested on male and female Wistar rats, each weighing 160 to 180 g., in groups of 10. The animals were fasted for 16 hours prior to treatment and were then administered various doses of the test compound, orally. One hour after treatment the rats were treated with 3.5 g./kg. of ethanol intraperitoneally (i.p.). The narcosis period of the animals was measured from the elapse of the righting reflex until a spontaneous correction of the body position. The average of the narcosis period and the percentage difference from the control were calculated. […] The control group was treated with a placebo and a […]. dose of ethanol.

[2] = system: ethanolic ataxia; experiment: Ethanolic ataxia and muscular tension on rotating rod; assay type: in vivo, BALB/c mice; details: n=10
Description: The effect of the compounds according to the invention on ethanolic ataxia and the change of muscular tension was tested on rotating rods. Trained and selected male and female BALB/c mice weighing 16 to 18 g. each were administered a 40 mg./kg. oral dose of the test compounds one hour before intraperitoneal administration of 2.5 g./kg. of ethanol. The time until the animals could remain on the rod was measured 60, 90 and 120 minutes after the ethanolic treatment. This time was 120 minutes for the animals with intact coordination. The results are summarized in Table 3, where the percentage of the animals remaining on the rotating rod is indicated.

[3] = system: hyperactivity induced by ethanol; experiment: Hyperactivity induced by ethanol (locomotor activity, Animex BSE motimeter); assay type: in vivo, BALB/c mice; details: n=15
Description: The effect of the compounds on hyperactivity induced by ethanol was tested on male and female BALB/c mice, each weighing 16 to 18 g. The test materials were administered to groups of 15 orally, one hour before administering the placebo orally or a 2 g./kg. dose of ethanol intraperitoneally. The control animals were treated with the placebo. The locomotor activity of the animals was measured for two hours, using an Animex BSE motimeter.

[4] = system: tremor induced by oxotremorin; experiment: Anticholinergic activity: inhibition of tremor induced by oxotremorin; assay type: in vivo, male CFLP mice; details: mice, oral; for ED50: Mus musculus, oxotremorin 0.5 mg./kg. i.p., read-out: Oxotremorin inh. (ED50); for Oxotremorin inh. (result in words): remark to the printed 160.0 mg./kg.
Description: (§1) To determine the antidepressive activity of the compounds provided by the invention the inhibition of catalepsy induced by tetrabenazine and the inversion of hypothermia induced by reserpin were measured. The anticholinergic activity was tested by determining the inhibition of tremor induced by oxotremorin. As a reference compound imipramine was used.
The anticholinergic activity was tested on male CFLP mice, weighing 18 to 22 g. each, which were treated with a 0.5 mg./kg. dose of oxotremorin (i.p.) and after 60 minutes with various oral doses of the test compounds.

[5] = system: hypothermia induced by reserpin; experiment: Inversion of reserpin-hypothermia (antireserpin activity); assay type: in vivo, male CFLP mice; details: Mus musculus, po; mice; orally, 16 hours after reserpin 5 mg./kg. i.p.; dose increasing body temperature by 50%
Description: as §1
The inversion of reserpin-hypothermia was tested on male CFLP mice, weighing 18 to 22 g. each and treated with a 5 mg./kg. dose of reserpin intraperitoneally. 16 hours after treatment the animals were administered various doses of the test compounds, orally. The rectal temperature of the animals was measured before the reserpin treatment, 16 hours after treatment and 2 hours after the administration of the test compounds.

[6] = Acute toxicity; details: rat, in vivo; rats; single 500 mg./kg. oral dose; observed for 14 hours; read-out: Toxicity, dead animals (%)
Description: The acute toxicity of the compounds according to the invention was determined on Hann.-Wistar rats of both sexes, weighing 160 to 180 g. each, which had been treated with a single 500 mg./kg. dose of the test compounds, orally. […] In Table 4 the percentage of the dead animals is given.

[7] = system: catalepsy induced by tetrabenazine; experiment: Inhibition of catalepsy induced by tetrabenazine; assay type: in vivo, Hann.-Wistar rats; details: Rattus norvegicus, po; rats; orally, 60 minutes before tetrabenazine 30 mg./kg. i.p.; probit analysis
Description: as §1

[8] = system: ethanolic narcosis; details: known effect of the reference material; cited from earlier work

| Compound | Ethanolic narcosis period (Control ± S.E. %) ([1]; 10.0 mg./kg. orally) [%] | Ethanolic narcosis period (Control ± S.E. %) ([1]; 40.0 mg./kg. orally) [%] | ED50 [4] [mg/kg] | Oxotremorin inh. (result in words) [4] | ED50 [5] [mg/kg] | mortality at 14 h [6] [%] | ED50 [7] [mg/kg] | further results |
| --- | --- | --- | --- | --- | --- | --- | --- | --- |
| CCN(CC)CCCOc1ccc(C(O)(CC)c2cccc(C(F)(F)F)c2)cc1 (stereo not drawn) [A, 3-trifluoromethyl-4'-[3-(diethylamino)-propoxy]-α-ethyl-benzhydrol] | 52 ± 11.1 | 40 ± 5.0 |  |  |  |  |  |  |
| CCN(CC)CCOc1ccc(C(O)(CC)c2ccc(Cl)cc2)cc1 (stereo not drawn) [B, 4-chloro-4'-[2-(diethylamino)-ethoxy]-α-ethyl-benzhydrol] | 48 ± 9.5 | 39 ± 4.5 |  |  |  |  |  | % of the animals remaining on the rod ([2]; compound 40.0 mg./kg. orally + ethanol 2500.0 mg./kg. i.p., 60 minutes, ethanol alone 10): 40%; % of the animals remaining on the rod ([2]; compound 40.0 mg./kg. orally + ethanol 2500.0 mg./kg. i.p., 90 minutes, ethanol alone 40): 70%; % of the animals remaining on the rod ([2]; compound 40.0 mg./kg. orally + ethanol 2500.0 mg./kg. i.p., 120 minutes, ethanol alone 50): 90%; % of the animals remaining on the rod ([2]; compound 40.0 mg./kg. orally, no ethanol, 60 minutes): 100%; % of the animals remaining on the rod ([2]; compound 40.0 mg./kg. orally, no ethanol, 90 minutes): 100%; % of the animals remaining on the rod ([2]; compound 40.0 mg./kg. orally, no ethanol, 120 minutes): 100%; Locomotor activity (2 hours) ([3]; compound 10.0 mg./kg. orally + ethanol 2000.0 mg./kg. i.p., ethanol + placebo 190 ± 12.2): 110 ± 8.1 percentage of the control; Locomotor activity (2 hours) ([3]; compound 10.0 mg./kg. orally + placebo (no ethanol), placebo control 100 ± 8.1): 110 ± 15.2 percentage of the control |
| CCN(CC)CCOc1ccc(C(O)(CC)c2ccc(C(F)(F)F)cc2)cc1 (stereo not drawn) [C, 4-trifluoromethyl-4'-[2-(diethylamino)-ethoxy]-α-ethyl-benzhydrol] |  |  | 160 | ineffective | 30 | 0 | 20 |  |
| CCN(CC)CCCOc1ccc(C(O)(CC)c2cccc(Cl)c2)cc1 (stereo not drawn) [D, 3-chloro-4'-[3-(diethylamino)-propoxy]-α-ethyl-benzhydrol] |  |  | 160 | ineffective | 17 | 0 | 18.8 |  |
| CN(C)CCCN1c2ccccc2CCc2ccccc21 [Imipramine, reference compound] |  |  | 50 |  | 15 | 80 | 13.7 |  |
| N[C@@H](CS)C(=O)O [L-cysteine, reference compound] |  |  |  |  |  |  |  | alcoholic narcosis reducing effect [8]: known to have an alcoholic narcosis reducing effect; Ethanolic narcosis period (Control ± S.E. %) ([1]; 500.0 mg./kg. orally): 63 ± 4.2% |
